For test [1], the species on record is Sus scrofa. The experiment in a line: Inhibition of Na/K-ATPase in pig kidney microsomal membranes assessed as reduction in inorganic phosphate release from ATP at 12.5 uM incubated for 15 mins by spectrophotometry. The class given is cell membranes.
For test [2], the species on record is Sus scrofa. The test is described as follows: Inhibition of Na/K-ATPase in pig kidney microsomal membranes assessed as reduction in inorganic phosphate release from ATP at 25 uM incubated for 15 mins by spectrophotometry. In kind it is cell membranes.

Calls of active or inactive are those of the source. The rule behind the calls is not given here.

The term inhibition denotes the percentage by which the read-out fell short of the control. As to `C=C1CC[C@@]2(OC1)O[C@H]1C[C@H]3[C@@H]4CC=C5C[C@@H](O)C[C@H]5[C@](C)(O)[C@H]4CC[C@]3(C)[C@H]1[C@@H]2C`, the values for the inhibition in the test listed under Sus scrofa [1] and in the test filed under Sus scrofa [2] were 21% and 43%, respectively.

`C[C@]12CCC3=C(C=CC4=C(C3)[C@@H]3C[C@H](C4)O3)[C@H]1CC[C@@H]2c1ccc(=O)oc1`: the inhibition entry in the test filed under Sus scrofa [1] and in the test filed under Sus scrofa [2] was “inactive” in each case.

Regarding `C[C@]12CC[C@H](O)C[C@H]1CC[C@@H]1[C@@H]2CC[C@]2(C)[C@@H](c3ccc(=O)oc3)CC[C@]12O`, the inhibition in the test filed under Sus scrofa [1] and in the test filed under Sus scrofa [2] was 100% each time.

(Values after ChEMBL document CHEMBL4177530, “Bufospirostenin A and Bufogargarizin C, Steroids with Rearranged Skeletons from the Toad Bufo bufo gargarizans” (J Nat Prod, 2017).)
